Experimental data taken from ChEMBL document CHEMBL4316596, “Antimicrobial Peptides with High Proteolytic Resistance for Combating Gram-Negative Bacteria” (J Med Chem, 2019).

Legend:
Salmonella typhimurium [1] = test: Antimicrobial activity against Salmonella typhimurium C7731 after 24 hrs by NCCLS-protocol based assay; format: functional, Salmonella enterica subsp. enterica serovar Typhimurium; details: Salmonella enterica, C7731, 24 h
[2] = Antimicrobial activity against Salmonella pullorum C7913 after 24 hrs by NCCLS-protocol based assay; format: functional, Salmonella enterica subsp. enterica serovar Pullorum; details: Salmonella enterica, C7913, 24 h
Salmonella typhimurium [3] = test: Bactericidal activity against Salmonella typhimurium ATCC 14028 incubated for 4 hrs followed by culture spread on agar plates and cultured overnight; format: functional, Salmonella enterica subsp. enterica serovar Typhimurium; details: Salmonella enterica, ATCC 14028, 4 h; read-out: MBC>99.9
Pseudomonas aeruginosa [4] = test: Bactericidal activity against Pseudomonas aeruginosa CICC 21625 clinical isolates incubated for 4 hrs followed by culture spread on agar plates and cultured overnight; format: functional; details: CICC 21625, 4 h, read-out: MBC>99.9
Acinetobacter baumannii [5] = test: Bactericidal activity against Acinetobacter baumannii incubated for 4 hrs followed by culture spread on agar plates and cultured overnight; format: functional; details: read-out: MBC>99.9
Escherichia coli [6] = test: Antimicrobial activity against Escherichia coli K99 after 24 hrs by NCCLS-protocol based assay; format: functional; details: K99, 24 h
Escherichia coli [7] = test: Bactericidal activity against Escherichia coli ATCC 25922 incubated for 4 hrs followed by culture spread on agar plates and cultured overnight; format: functional; details: ATCC 25922, 4 h, read-out: MBC>99.9
Klebsiella pneumoniae [8] = test: Antimicrobial activity against Klebsiella pneumoniae after 24 hrs by NCCLS-protocol based assay; format: functional
Pseudomonas aeruginosa [9] = test: Bactericidal activity against Pseudomonas aeruginosa ATCC 27853 incubated for 4 hrs followed by culture spread on agar plates and cultured overnight; format: functional; details: ATCC 27853, 4 h, read-out: MBC>99.9
Escherichia coli [10] = test: Antimicrobial activity against Escherichia coli ATCC 25922 after 24 hrs by NCCLS-protocol based assay; format: functional; details: ATCC 25922, 24 h
Pseudomonas aeruginosa [11] = test: Antimicrobial activity against Pseudomonas aeruginosa CICC 21630 clinical isolates after 24 hrs by NCCLS-protocol based assay; format: functional; details: CICC 21630, 24 h
Escherichia coli [12] = test: Bactericidal activity against Escherichia coli K99 incubated for 4 hrs followed by culture spread on agar plates and cultured overnight; format: functional; details: K99, 4 h, read-out: MBC>99.9
Pseudomonas aeruginosa [13] = test: Antimicrobial activity against Pseudomonas aeruginosa PAO1 after 24 hrs by NCCLS-protocol based assay; format: functional; details: PAO1, 24 h
Escherichia coli [14] = test: Antimicrobial activity against Escherichia coli UB1005 after 24 hrs by NCCLS-protocol based assay; format: functional; details: UB1005, 24 h
[15] = Bactericidal activity against Salmonella pullorum C7913 incubated for 4 hrs followed by culture spread on agar plates and cultured overnight; format: functional, Salmonella enterica subsp. enterica serovar Pullorum; details: Salmonella enterica, C7913, 4 h; read-out: MBC>99.9
Pseudomonas aeruginosa [16] = test: Antimicrobial activity against Pseudomonas aeruginosa 26305 clinical isolates after 24 hrs by NCCLS-protocol based assay; format: functional; details: Pseudomonas aeruginosa, 26305, 24 h
Salmonella typhimurium [17] = test: Bactericidal activity against Salmonella typhimurium C7731 incubated for 4 hrs followed by culture spread on agar plates and cultured overnight; format: functional, Salmonella enterica subsp. enterica serovar Typhimurium; details: Salmonella enterica, C7731, 4 h; read-out: MBC>99.9
Acinetobacter baumannii [18] = test: Antimicrobial activity against Acinetobacter baumannii after 24 hrs by NCCLS-protocol based assay; format: functional
Pseudomonas aeruginosa [19] = test: Bactericidal activity against Pseudomonas aeruginosa CICC 21630 clinical isolates incubated for 4 hrs followed by culture spread on agar plates and cultured overnight; format: functional; details: CICC 21630, 4 h, read-out: MBC>99.9
Escherichia coli [20] = test: Antimicrobial activity against Escherichia coli K88 after 24 hrs by NCCLS-protocol based assay; format: functional; details: K88, 24 h
Escherichia coli [21] = test: Antimicrobial activity against Escherichia coli 078 after 24 hrs by NCCLS-protocol based assay; format: functional; details: Escherichia coli, 078, 24 h
Pseudomonas aeruginosa [22] = test: Antimicrobial activity against Pseudomonas aeruginosa CICC 21625 clinical isolates after 24 hrs by NCCLS-protocol based assay; format: functional; details: CICC 21625, 24 h
Pseudomonas aeruginosa [23] = test: Antimicrobial activity against Pseudomonas aeruginosa ATCC 27853 after 24 hrs by NCCLS-protocol based assay; format: functional; details: ATCC 27853, 24 h
Klebsiella pneumoniae [24] = test: Bactericidal activity against Klebsiella pneumoniae incubated for 4 hrs followed by culture spread on agar plates and cultured overnight; format: functional; details: read-out: MBC>99.9
Escherichia coli [25] = test: Bactericidal activity against Escherichia coli 078 incubated for 4 hrs followed by culture spread on agar plates and cultured overnight; format: functional; details: Escherichia coli, 078, 4 h; read-out: MBC>99.9
Pseudomonas aeruginosa [26] = test: Bactericidal activity against Pseudomonas aeruginosa 26305 clinical isolates incubated for 4 hrs followed by culture spread on agar plates and cultured overnight; format: functional; details: Pseudomonas aeruginosa, 26305, 4 h; read-out: MBC>99.9
Pseudomonas aeruginosa [27] = test: Bactericidal activity against Pseudomonas aeruginosa 25349 clinical isolates incubated for 4 hrs followed by culture spread on agar plates and cultured overnight; format: functional; details: Pseudomonas aeruginosa, 25349, 4 h; read-out: MBC>99.9
Pseudomonas aeruginosa [28] = test: Antimicrobial activity against Pseudomonas aeruginosa 25349 clinical isolates after 24 hrs by NCCLS-protocol based assay; format: functional; details: Pseudomonas aeruginosa, 25349, 24 h
Escherichia coli [29] = test: Bactericidal activity against Escherichia coli UB1005 incubated for 4 hrs followed by culture spread on agar plates and cultured overnight; format: functional; details: UB1005, 4 h, read-out: MBC>99.9
Salmonella typhimurium [30] = test: Antimicrobial activity against Salmonella typhimurium ATCC 14028 after 24 hrs by NCCLS-protocol based assay; format: functional, Salmonella enterica subsp. enterica serovar Typhimurium; details: Salmonella enterica, ATCC 14028, 24 h
Escherichia coli [31] = test: Bactericidal activity against Escherichia coli K88 incubated for 4 hrs followed by culture spread on agar plates and cultured overnight; format: functional; details: K88, 4 h, read-out: MBC>99.9
Pseudomonas aeruginosa [32] = test: Bactericidal activity against Pseudomonas aeruginosa PAO1 incubated for 4 hrs followed by culture spread on agar plates and cultured overnight; format: functional; details: PAO1, 4 h, read-out: MBC>99.9

Row | Substance | MIC95 (Salmonella typhimurium [1]) [µM] | MIC95 [2] [µM] | MBC (Salmonella typhimurium [3]) [µM] | MBC (Pseudomonas aeruginosa [4]) [µM] | MBC (Acinetobacter baumannii [5]) [µM] | MIC95 (Escherichia coli [6]) [µM] | MBC (Escherichia coli [7]) [µM] | MIC95 (Klebsiella pneumoniae [8]) [µM] | MBC (Pseudomonas aeruginosa [9]) [µM] | MIC95 (Escherichia coli [10]) [µM] | MIC95 (Pseudomonas aeruginosa [11]) [µM] | MBC (Escherichia coli [12]) [µM] | MIC95 (Pseudomonas aeruginosa [13]) [µM] | MIC95 (Escherichia coli [14]) [µM] | MBC [15] [µM] | MIC95 (Pseudomonas aeruginosa [16]) [µM] | MBC (Salmonella typhimurium [17]) [µM] | MIC95 (Acinetobacter baumannii [18]) [µM] | MBC (Pseudomonas aeruginosa [19]) [µM] | MIC95 (Escherichia coli [20]) [µM] | other results
1 | H-IKPIIKPIIKPIIKPI-NH2 | > 64 | > 64 | > 64 | > 64 | > 64 | > 64 | > 64 | > 64 | > 64 | > 64 | > 64 | > 64 | > 64 | > 64 | > 64 | > 64 | > 64 | > 64 | > 64 | > 64 | MIC95 (Escherichia coli [21]): > 64 µM; MIC95 (Pseudomonas aeruginosa [22]): > 64 µM; MIC95 (Pseudomonas aeruginosa [23]): > 64 µM; MBC (Klebsiella pneumoniae [24]): > 64 µM; MBC (Escherichia coli [25]): > 64 µM; MBC (Pseudomonas aeruginosa [26]): > 64 µM; MBC (Pseudomonas aeruginosa [27]): > 64 µM; MIC95 (Pseudomonas aeruginosa [28]): > 64 µM; MBC (Escherichia coli [29]): > 64 µM; MIC95 (Salmonella typhimurium [30]): > 64 µM; MBC (Escherichia coli [31]): > 64 µM; MBC (Pseudomonas aeruginosa [32]): > 64 µM
2 | H-IRPIIRPIIRPIIRPI-NH2 | 16 | 16 | 16 | > 64 | 8 | 8 | 32 | 32 | > 64 | 16 | > 64 | 16 | > 64 | 16 | 16 | > 64 | 32 | 8 | > 64 | 4 | MIC95 (Escherichia coli [21]): 16 µM; MIC95 (Pseudomonas aeruginosa [22]): > 64 µM; MIC95 (Pseudomonas aeruginosa [23]): > 64 µM; MBC (Klebsiella pneumoniae [24]): 32 µM; MBC (Escherichia coli [25]): 32 µM; MBC (Pseudomonas aeruginosa [26]): > 64 µM; MBC (Pseudomonas aeruginosa [27]): > 64 µM; MIC95 (Pseudomonas aeruginosa [28]): > 64 µM; MBC (Escherichia coli [29]): 16 µM; MIC95 (Salmonella typhimurium [30]): 16 µM; MBC (Escherichia coli [31]): 8 µM; MBC (Pseudomonas aeruginosa [32]): > 64 µM
3 | H-VKPVVKPVVKPVVKPVVKPVVKPV-NH2 | > 64 | > 64 | > 64 | > 64 | > 64 | > 64 | > 64 | > 64 | > 64 | > 64 | > 64 | > 64 | > 64 | > 64 | > 64 | > 64 | > 64 | > 64 | > 64 | > 64 | MIC95 (Escherichia coli [21]): > 64 µM; MIC95 (Pseudomonas aeruginosa [22]): > 64 µM; MIC95 (Pseudomonas aeruginosa [23]): > 64 µM; MBC (Klebsiella pneumoniae [24]): > 64 µM; MBC (Escherichia coli [25]): > 64 µM; MBC (Pseudomonas aeruginosa [26]): > 64 µM; MBC (Pseudomonas aeruginosa [27]): > 64 µM; MIC95 (Pseudomonas aeruginosa [28]): > 64 µM; MBC (Escherichia coli [29]): > 64 µM; MIC95 (Salmonella typhimurium [30]): > 64 µM; MBC (Escherichia coli [31]): > 64 µM; MBC (Pseudomonas aeruginosa [32]): > 64 µM
4 | H-LKPLLKPLLKPLLKPLLKPLLKPLLKPLLKPL-NH2 | 4 | 2 | 4 | 16 | 1 | 1 | 1 | 1 | 2 | 1 | 4 | 2 | 1 | 2 | 4 | 4 | 4 | 1 | 8 | 1 | MIC95 (Escherichia coli [21]): 2 µM; MIC95 (Pseudomonas aeruginosa [22]): 4 µM; MIC95 (Pseudomonas aeruginosa [23]): 2 µM; MBC (Klebsiella pneumoniae [24]): 2 µM; MBC (Escherichia coli [25]): 2 µM; MBC (Pseudomonas aeruginosa [26]): 8 µM; MBC (Pseudomonas aeruginosa [27]): 16 µM; MIC95 (Pseudomonas aeruginosa [28]): 4 µM; MBC (Escherichia coli [29]): 4 µM; MIC95 (Salmonella typhimurium [30]): 2 µM; MBC (Escherichia coli [31]): 1 µM; MBC (Pseudomonas aeruginosa [32]): 2 µM
